From PMC8605023 (Nature Communications, 2021)
Ends that are not written are not given here. Peptide text beside a SMILES is read from it. * marks the point of attachment. FITC = O=C1OC2(c3ccc(O)cc3Oc3cc(O)ccc32)c2ccc(NC(=S)*)cc21

Tests used:
AP2M1 [1] = target: T1, AP2M1 (Homo sapiens, UniProt Q96CW1); assay: FP saturation (direct) binding of FITC-labeled probe peptide, AP2M1
T1 construct: His-GST (cleaved yes); made in house; host or cells: E. coli BL21-Gold(DE3)
T1 sequence (Q96CW1 160-435 limits assumed): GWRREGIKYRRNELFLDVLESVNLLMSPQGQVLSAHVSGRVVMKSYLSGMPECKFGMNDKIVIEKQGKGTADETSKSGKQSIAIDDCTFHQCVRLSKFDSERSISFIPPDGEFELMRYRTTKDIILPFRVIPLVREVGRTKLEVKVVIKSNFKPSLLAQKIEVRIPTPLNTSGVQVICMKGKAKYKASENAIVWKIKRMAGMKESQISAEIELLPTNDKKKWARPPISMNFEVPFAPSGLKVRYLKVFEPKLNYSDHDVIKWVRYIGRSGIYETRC
Procedure: (§1) Proteins used for FP affinity measurements were expressed and purified in larger-scale bacterical cultures (at least 8 × 500 mL 2YT). His-GST-tagged G3BP1 and G3BP2 were used directly for affinity measurements after dialysis.
(§2) FP experiments were carried out using a SpectraMax iD5 multimode microplate reader (Molecular Devices) using a black half area 96-well plate (Corning, USA #3993) with a total volume of 50 μL. The settings used were 485 nm for excitation and 535 nm for emission.
(§3) Peptides were from GeneCust (France) with a purity of over 95%. FITC-labeled peptides were dissolved in dimethyl sulfoxide (DMSO). Unlabelled peptides were dissolved in phosphate buffer (50 mM phosphate buffer pH 7.5 and 1–2 mM reducing agent DTT or TCEP). All measurements were performed at least in triplicates. For saturation binding experiment, proteins were serially diluted in the plate with phosphate buffer in a volume 25 μL, and then supplemented with a master mix of 10 nM FITC-labeled peptide in phosphate buffer. […] Twenty-five mitroliter of this displacement master mix was added to unlabeled peptides, which were serially diluted in the plate in 25 μL phosphate buffer.
(§4) The data were analysed with GraphPad Prism version 9.0.0 for MacOS (GraphPad Software, San Diego, California USA, www.graphpad.com). […]

USP7 [2] = target: T2, USP7 (Homo sapiens, UniProt Q93009); assay: FP saturation (direct) binding of FITC-labeled probe peptide, USP7; conditions: Kd direct binding of 10 nM FITC probe, saturation with protein
T2 construct: His-GST (cleaved yes); made in house; host or cells: E. coli BL21-Gold(DE3)
T2 sequence (Q93009 63-205 limits assumed): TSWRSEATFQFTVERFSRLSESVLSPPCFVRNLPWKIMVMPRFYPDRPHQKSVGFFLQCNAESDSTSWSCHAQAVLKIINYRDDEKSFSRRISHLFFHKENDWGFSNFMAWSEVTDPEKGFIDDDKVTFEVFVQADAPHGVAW
Procedure: as §1, §2, §3, §4

USP7 [3] = target: T2, USP7; assay: biochemical; type: binding
MAP1LC3C [4] = target: T3, MAP1LC3C (Homo sapiens, UniProt Q9BXW4); assay: biochemical; type: binding
T3 construct: His-GST (cleaved yes); made in house; host or cells: E. coli BL21-Gold(DE3)
T3 sequence (Q9BXW4 1-126 limits assumed): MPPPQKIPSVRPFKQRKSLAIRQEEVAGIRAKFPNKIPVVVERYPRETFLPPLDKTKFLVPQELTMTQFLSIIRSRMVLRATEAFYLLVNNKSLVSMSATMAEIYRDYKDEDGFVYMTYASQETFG

[5] = target: FERM domain of Ezrin (EZR) (Homo sapiens, UniProt P15311); assay: biochemical; type: binding
Chain of FERM domain of Ezrin (EZR) (P15311 2-296 limits assumed): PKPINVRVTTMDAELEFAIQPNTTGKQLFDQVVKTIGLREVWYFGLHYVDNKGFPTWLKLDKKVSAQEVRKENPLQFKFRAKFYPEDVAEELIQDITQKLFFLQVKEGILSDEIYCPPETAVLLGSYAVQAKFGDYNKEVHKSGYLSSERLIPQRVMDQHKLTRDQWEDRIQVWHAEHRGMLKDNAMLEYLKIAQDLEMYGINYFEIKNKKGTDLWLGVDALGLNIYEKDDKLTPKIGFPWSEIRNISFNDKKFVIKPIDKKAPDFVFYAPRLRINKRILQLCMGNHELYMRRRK

MAP1LC3C [6] = target: T3, MAP1LC3C; assay: FP saturation (direct) binding of FITC-labeled probe peptide, MAP1LC3C
Procedure: as §1, §2, §3, §4

AP2M1 [7] = target: T1, AP2M1; assay: biochemical; type: binding

Compound: CC(C)C[C@H](NC(=O)[C@H](CCCNC(=N)N)NC(=O)[C@H](CCC(N)=O)NC(=O)[C@H](Cc1ccc(O)cc1)NC(=O)[C@H](CCC(=O)O)NC(=O)[C@@H](NC(=O)[C@H](CC(=O)O)NC(=O)[C@H](Cc1ccccc1)NC(=S)Nc1ccc2c(c1)C(=O)OC21c2ccc(O)cc2Oc2cc(O)ccc21)[C@@H](C)O)C(=O)N[C@@H](CCC(=O)O)C(=O)N[C@@H](C)C(=O)N[C@@H](CO)C(=O)O [ATG9A 4-14 Human] (HELM PEPTIDE1{[O=C1OC2(c3ccc(O)cc3Oc3cc(O)ccc32)c2ccc(NC(=S)[*:2])cc21].F.D.T.E.Y.Q.R.L.E.A.S}$$$$V2.0)
- Kd (AP2M1 [1]): 1.1 ± 0.03 µM

Compound: {FITC}-DYSQPSTSSSIIY [MDM2 393-414 Human]
- Ki displacement/Kd direct binding (USP7 [2]): 0.49 µM

Compound: CC(C)C[C@H](NC(=O)[C@@H](NC(=O)[C@H](CC(=O)O)NC(=O)[C@H](Cc1ccccc1)NC(=O)[C@H](CO)NC(=O)[C@H](CC(N)=O)NC(=O)[C@H](CO)NC(=O)[C@@H](NC(=O)[C@H](CCC(=O)O)NC(=O)[C@@H](N)C(C)C)[C@@H](C)O)C(C)C)C(=O)N[C@@H](CCCCN)C(=O)N[C@@H](CO)C(=O)N[C@@H](CCC(=O)O)C(=O)N[C@@H](CC(=O)O)C(=O)N[C@@H](C)C(=O)N[C@@H](CCC(N)=O)C(=O)N[C@@H](Cc1ccc(O)cc1)C(=O)O [NSP3 2019-2034 Sars-CoV2]
- IC50 (USP7 [3]): 270 µM
- Kd (USP7 [3]): 37 ± 0.2 µM
- Ki (USP7 [3]): 37 µM
- IC50 (MAP1LC3C [4]): 1530 µM
- Kd (MAP1LC3C [4]): 210 ± 18 µM
- Ki (MAP1LC3C [4]): 210 µM
- Kd [5]: 19.8 ± 0.4 µM

Compound: CC(C)C[C@H](NC(=O)[C@H](Cc1c[nH]cn1)NC(=O)[C@@H](NC(=O)[C@H](Cc1c[nH]c2ccccc12)NC(=O)[C@H](CC(=O)O)NC(=O)[C@H](CC(=O)O)NC(=O)[C@H](CC(=O)O)NC(=S)Nc1ccc2c(c1)C(=O)OC21c2ccc(O)cc2Oc2cc(O)ccc21)[C@@H](C)O)C(=O)N[C@@H](CO)C(=O)N[C@@H](CO)C(=O)N[C@@H](CCCCN)C(N)=O [SQSTM1 335-344 Human]
- Kd (MAP1LC3C [6]): 1.1 ± 0.03 µM

Compound: CC[C@H](C)[C@H](NC(=O)[C@H](Cc1c[nH]cn1)NC(=O)[C@H](CCCCN)NC(=O)[C@H](CC(N)=O)NC(=O)[C@H](CC(C)C)NC(C)=O)C(=O)N[C@@H](CC(=O)O)C(=O)N[C@@H](C)C(=O)N[C@@H](Cc1ccc(O)cc1)C(=O)N[C@@H](CCCCN)C(=O)N[C@H](C(=O)N[C@@H](Cc1ccccc1)C(=O)N1CCC[C@H]1C(=O)N1CCC[C@H]1C(=O)N[C@H](C(=O)N[C@@H](CCC(=O)O)C(N)=O)[C@@H](C)O)[C@@H](C)O [N 353-367 Sars-CoV2/Sars-CoV]
- IC50 (AP2M1 [7]): 1530 µM
- Ki (AP2M1 [7]): 530 µM

Compound: CC[C@H](C)[C@H](NC(=O)[C@H](CCSC)NC(=O)[C@H](CO)NC(C)=O)C(=O)N[C@@H](CCC(=O)O)C(=O)N[C@@H](CC(=O)O)C(=O)N[C@H](C(=O)N[C@@H](CC(=O)O)C(=O)N[C@@H](Cc1ccc(O)cc1)C(=O)N[C@H](C(=O)N1CCC[C@H]1C(=O)N[C@@H](CC(C)C)C(=O)N[C@@H](CCCCN)C(=O)N[C@@H](CO)C(=O)N[C@@H](C)C(=O)N[C@H](C(N)=O)C(C)C)C(C)C)[C@@H](C)CC [NSP14 6498-6512 Mers]
- Kd (AP2M1 [7]): 3 ± 0.1 µM
- Ki (AP2M1 [7]): 3 µM

Compound: CC[C@H](C)[C@H](NC(=O)[C@H](CC(C)C)NC(=O)[C@@H](NC(=O)CNC(=O)[C@@H](NC(=O)[C@H](CCC(=O)O)NC(=O)[C@H](CCC(=O)O)NC(=O)[C@H](CO)NC(=O)[C@@H](NC(=O)[C@H](Cc1ccccc1)NC(=O)[C@H](CO)NC(=O)[C@H](Cc1ccc(O)cc1)NC(=O)[C@@H](N)CCSC)C(C)C)[C@@H](C)O)[C@@H](C)O)C(=O)N[C@H](C(=O)N[C@@H](CC(N)=O)C(=O)N[C@@H](CO)C(=O)O)C(C)C [E 1-16 Sars-CoV2/Sars-CoV] (H-MYSFVSEETGTLIVNS-OH)
- Kd [5]: 57.9 ± 0.4 µM
